How the values were obtained:
HFD-fed C57BL/6J mice [1] = experiment: Hepatic lipid in HFD-fed mice; format: in vivo; settings: oral gavage daily for 4 weeks
Protocol: (§1) Experimental Animals: the experiments are conducted under the guidelines of the Institutional Animal Care and Use Committee of Central Taiwan University of Science and Technology. As previously described, four-week-old male C57BL/6J mice (n=63) is purchased from the National Laboratory Animal Breeding and Research Center, Ministry of Science and Technology. After 1-week of acclimatization, mice are designed to initiate the study, and the study lasts for 12 weeks. […] The CON group and high-fat control (HF) group are given with vehicle only. The low-fat diet consisted of fat 10%, whereas the high-fat diet (HFD) consisted of fat 45% (of total energy, % kcal). The compositions of the experimental diets are shown as described. At the end of the study, food is derived from the animals (from 10 p.m. to 10 a.m.). On the next day, the mice are sacrificed, and blood and tissue are collected for analysis. Livers, skeletal muscles, and white adipose tissues (WATs) (including epididymal, mesenteric and retroperitoneal WAT) are excised and weighed, and then immediately stored in a freezer at −80° C. Heparin (30 units/mL) (Sigma) is added to blood samples. Plasma samples are collected by centrifugation at 1600 g for 15 min at 4° C. within 30 min, and plasma is obtained for insulin and leptin level analysis.
Blood Lipid and Hepatic Lipid. Hepatic lipids are extracted as previously described. Liver sample (0.375 g) is homogenized with 1 mL of distilled water for 5 min for the hepatic lipid extraction and analyzed using a triglycerides kit as used for serum lipids.

HFD-fed C57BL/6J mice [2] = experiment: Body weight, food intake and tissue weight in HFD-fed mice; format: in vivo; settings: oral gavage daily for 4 weeks
Protocol: as §1
Body Weight, Food Intake and Tissue Weight. Throughout the embodiment, body weight and food intake are daily recorded at the same time. Body weight gain is defined as the difference between 1 day and the next day. The pellet food is weighed and placed in a cage food container. After 24 h, the remaining food is weighed and the crumbs are collected as much as possible. Based on the difference between 1 day and the next day, the daily food intake is calculated.

HFD-fed C57BL/6J mice [3] = experiment: Histopathology examination of epididymal WAT and liver tissue; format: in vivo; settings: oral gavage daily for 4 weeks
Protocol: as §1
A portion of the collected epididymal WAT and liver tissue is fixed with formalin (200 g/kg) neutral buffered solution and embedded in paraffin. Sections (8 μm) are cut and stained with hematoxylin and eosin. A microscope (Leica, DM2500) and Leica Digital camera (DFC-425-C) are used for microscopic examination and images taken, respectively.

membrane GLUT4 = experiment: Western blotting of membrane GLUT4 in skeletal muscle; format: in vivo, C57BL/6J mice; settings: HFD-fed mice, 10 mg/kg/day
Protocol: as §1
Protein extractions and immunoblots for the determination of membrane GLUT4, phospho-AMPK (Thr172), and phospho-Akt (Ser 473) proteins are carried out on frozen skeletal muscle and liver tissue from mice, which follows a previous paper. Additionally, membrane GLUT4 is carried out on frozen skeletal muscle from mice, and the total membrane fractions are collected with buffer and centrifuged as a previously described. The protein contents of membrane GLUT4, phospho-AMPK, phospho-Akt, total AMPK, and total Akt are detected by western blotting. Western blotting has been determined as described elsewhere. Subsequently, antibodies are detected using horseradish peroxidase linked to a goat anti-IgG rabbit secondary antibody and visualized using an ECL system. Membrane GLUT4, structural proteins GAPDH and β-actin are purchased from Santa Cruz Biotechnology (Santa Cruz, Calif., USA); phospho-AMPK was obtained from Abcam Inc. (Cambridge, Mass., USA); phospho-Akt, total AMPK, and total Akt are from Cell Signaling Technology, Inc. (Danver Mass., USA); the BCA protein assay kit is from Thermo Scientific (Rockford, Ill., USA); and the ECL reagent kit is from GE Healthcare BioSciences (Buckinghamshire, UK). The secondary antibody antirabbit is from Jackson ImmunoResearch Laboratories, Inc. (West Grove, Pa., USA). The density blotting is analyzed using Alpha Easy FC software (Alpha Innotech Corp., Randburg, South Africa). Structural proteins GAPDH and β-actin are obtained by stripping the nitrocellulose membrane proteins of liver and skeletal muscle, respectively.

HFD-fed C57BL/6J mice [4] = experiment: Blood glucose, HbA1c, blood lipids, insulin and leptin levels in HFD-fed mice; format: in vivo; settings: for Blood Profiles FFA / Blood Profiles HDL-C / Blood Profiles HbA1c / Blood Profiles LDL-C: oral gavage daily for 4 weeks
Protocol: as §1
Blood Glucose and HbA1c Levels. Blood samples (0.8 mL) are collected from the retro-orbital sinuses of fasting mice, and glucose level is measured by the glucose oxidase method (model 1500; Sidekick Glucose Analyzer; YSI Inc., Yellow Springs, Ohio, USA). Percent HbA1c is detected with a Hemoglobin A1c kit (BioSystems S.A., Barcelona, Spain). Plasma triglycerides (TG), total cholesterol (TC), free fatty acids (FFA), high-density lipoprotein cholesterol (HDL-C), and low density lipoprotein cholesterol (LDL-C) are determined using commercial assay kits (Triglycerides-E test, Cholesterol-E test, and FFA-C test, Wako Pure Chemical, Osaka, Japan; HDL-C-test and LDL-C-test, Roche Diagnostics GmbH, Indianapolis, USA) according to their instructions. A mouse insulin ELISA kit (Sibayagi, Gunma, Japan) and mouse leptin ELISA kit (Morinaga, Yokohama, Japan) are used to measure blood insulin and leptin levels, respectively.

Compound: CN(CCOc1ccc(CC2SC(=O)NC2=O)cc1)c1ccccn1 (stereo not drawn) [Rosi, rosiglitazone, reference compound]
- Liver Lipids total lipid (HFD-fed C57BL/6J mice [1]; 10 mg/kg/day): 65.1 ± 5.3 mg/g
- Liver Lipids triacylglycerol (HFD-fed C57BL/6J mice [1]; 10 mg/kg/day): 44.5 ± 3.2 µmol/g
- Absolute Tissue Weight BAT (HFD-fed C57BL/6J mice [2]; 10 mg/kg/day): 0.175 ± 0.018 g
- Absolute Tissue Weight EWAT (HFD-fed C57BL/6J mice [2]; 10 mg/kg/day): 0.813 ± 0.069 g
- Absolute Tissue Weight Liver (HFD-fed C57BL/6J mice [2]; 10 mg/kg/day): 0.816 ± 0.038 g
- Absolute Tissue Weight MWAT (HFD-fed C57BL/6J mice [2]; 10 mg/kg/day): 0.257 ± 0.019 g
- Absolute Tissue Weight RWAT (HFD-fed C57BL/6J mice [2]; 10 mg/kg/day): 0.244 ± 0.042 g
- Absolute Tissue Weight Skeletal muscle (HFD-fed C57BL/6J mice [2]; 10 mg/kg/day): 0.737 ± 0.094 g
- weight gain (HFD-fed C57BL/6J mice [2]; 10 mg/kg/day): 1.71 ± 0.56 g
- average area of adipocytes (epididymal WAT) (HFD-fed C57BL/6J mice [3]; 10 mg/kg/day): 5598.6±162.7 μm2
- enhancement of muscular membrane GLUT4 protein (membrane GLUT4): ~2.1 fold
- Blood Profiles FFA (HFD-fed C57BL/6J mice [4]; 10 mg/kg/day): 1.00 ± 0.09 meq/L
- Blood Profiles HDL-C (HFD-fed C57BL/6J mice [4]; 10 mg/kg/day): 73.1 ± 5.8 mg/dL
- Blood Profiles HbA1c (HFD-fed C57BL/6J mice [4]; 10 mg/kg/day): 6.2 ± 0.4 %
- Blood Profiles LDL-C (HFD-fed C57BL/6J mice [4]; 10 mg/kg/day): 86.7 ± 7.7 mg/dL

Compound: CC(C)OC(=O)C(C)(C)Oc1ccc(C(=O)c2ccc(Cl)cc2)cc1 [Feno, fenofibrate, reference compound]
- Liver Lipids total lipid (HFD-fed C57BL/6J mice [1]; 250 mg/kg/day): 63.8 ± 4.7 mg/g
- Liver Lipids triacylglycerol (HFD-fed C57BL/6J mice [1]; 250 mg/kg/day): 48.4 ± 5.6 µmol/g
- Absolute Tissue Weight BAT (HFD-fed C57BL/6J mice [2]; 250 mg/kg/day): 0.142 ± 0.012 g
- Absolute Tissue Weight EWAT (HFD-fed C57BL/6J mice [2]; 250 mg/kg/day): 0.924 ± 0.069 g
- Absolute Tissue Weight Liver (HFD-fed C57BL/6J mice [2]; 250 mg/kg/day): 1.046 ± 0.033 g
- Absolute Tissue Weight MWAT (HFD-fed C57BL/6J mice [2]; 250 mg/kg/day): 0.295 ± 0.009 g
- Absolute Tissue Weight RWAT (HFD-fed C57BL/6J mice [2]; 250 mg/kg/day): 0.249 ± 0.028 g
- Absolute Tissue Weight Skeletal muscle (HFD-fed C57BL/6J mice [2]; 250 mg/kg/day): 0.569 ± 0.069 g
- weight gain (HFD-fed C57BL/6J mice [2]; 250 mg/kg/day): 0.69 ± 0.63 g
- average area of adipocytes (epididymal WAT) (HFD-fed C57BL/6J mice [3]; 250 mg/kg/day): 4175.4±322.9 μm2
- decrease of the circulating TG level (HFD-fed C57BL/6J mice [4]; 250 mg/kg/day): 47.9%
- Blood Profiles FFA (HFD-fed C57BL/6J mice [4]; 250 mg/kg/day): 0.94 ± 0.08 meq/L
- Blood Profiles HDL-C (HFD-fed C57BL/6J mice [4]; 250 mg/kg/day): 80.3 ± 4.5 mg/dL
- Blood Profiles HbA1c (HFD-fed C57BL/6J mice [4]; 250 mg/kg/day): 6.4 ± 0.7 %
- Blood Profiles LDL-C (HFD-fed C57BL/6J mice [4]; 250 mg/kg/day): 105.8 ± 10.4 mg/dL

Source: patent US9757393B2 (priority 2015, dated 2017)
